In patent US20250288683A1, “TETRAHYDROISOQUINOLINE HETEROBIFUNCTIONAL BCL-XL DEGRADERS” (Treeline Biosciences, Inc., priority 2022, published 2025):

Target: T1, Human BCL-XL protein (N-terminal HiBiT tagged BCL-XL in HT1080 cells) (Homo sapiens, UniProt Q07817)
T1 construct: expressed in transfected cells; host or cells: HT-1080 (ATCC CCL-121), stably transduced with lentivirus pLV-UBC-N-HiBiT-BCL-XL-PGK-puro and selected with puromycin
Assay: HiBiT based degradation assay
Format: cell-based
Settings: HT1080 cells expressing N-terminal HiBiT tagged BCL-XL, normalized with DMSO control
Description: HiBiT Based Degradation Assay
Human BCL-XL protein coding open reading frame fused with N-terminal HiBiT coding sequence was synthesized from Integrated DNA Technologies (IDT). Next, N-HiBiT-BCL-XL sequence was cloned into pLV-UBC-PGK-Puro, a lentivirus plasmid purchased from Vectorbuilder, to generate pLV-UBC-N-HiBiT-BCL-XL-PGK-puro. Lentiviral particles were generated from Lenti-X™ 293T cells (Clontech) by co-transfection of pLV-UBC-N-HiBiT-BCL-XL-PGK-puro plasmids and lentiviral packaging plasmid mix (Cellecta). HT-1080 [HT1080](ATCC CCL-121) cells were infected with the lentivirus, and HT1080 cells stably integrated with the lentiviral vectors were established by incubation with 1 μg/mL puromycin (Thermofisher).
HT1080 cells expressing N-terminal HiBiT tagged BCL-XL were dispensed into a 384-well plate pre-spotted with compounds at varying concentrations. Three thousand cells were seeded into each well in 40 μL of RPMI 1640 media. […] After incubation, luminescence was read on a PHERAstar FSX Plate Reader (BMG). BCL-XL degradation at each indicated concentration was normalized with the DMSO control. The BCL-XL degradation curves were plotted using a four-parameter logistic model. For compounds displaying hook effects, the curve fitting was performed using the bottom point of the hook curves (i.e., the point of Ymin) as the bottom plateau to calculate EC50.

T1 sequence (Q07817 whole entry): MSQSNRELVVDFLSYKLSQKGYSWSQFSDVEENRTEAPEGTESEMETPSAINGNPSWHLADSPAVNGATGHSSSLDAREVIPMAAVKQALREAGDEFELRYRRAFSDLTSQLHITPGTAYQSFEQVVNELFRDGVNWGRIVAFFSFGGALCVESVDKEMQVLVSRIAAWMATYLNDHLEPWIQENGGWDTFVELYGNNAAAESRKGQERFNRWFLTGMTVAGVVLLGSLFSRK

Row | SMILES | Ymin (24 h) | Ymin (6 h)
1 | Cc1ncsc1-c1ccc([C@H](C)NC(=O)[C@@H]2C[C@@H](O)CN2C(=O)[C@@H](NC(=O)C[C@H]2CC[C@@H](Oc3cccc(-c4ccc(N5CCc6cccc(C(=O)Nc7nc8ccccc8s7)c6C5)nc4C(=O)O)c3C)CC2)C(C)(C)C)cc1 [Compound 116b, 6-(8-(benzo[d]thiazol-2-ylcarbamoyl)-3,4-dihydroisoquinolin-2 (1H)-yl)-3-(3-(((1R,4s)-4-(2-(((S)-1-((2S,4R)-4-hydroxy-2-(((S)-1-(4-(4-methylthiazol-5-yl)phenyl)ethyl)carbamoyl)pyrrolidin-1-yl)-3,3-dimethyl-1-oxobutan-2-yl)amino)-2-oxoethyl)cyclohexyl)oxy)-2-methylphenyl)picolinic acid] | B (50% ≤ Ymin < 70%) | 
2 | Cc1ncsc1-c1ccc([C@H](C)NC(=O)[C@@H]2C[C@@H](O)CN2C(=O)[C@@H](NC(=O)CC[C@@H](C)c2ccc(Oc3cccc(-c4ccc(N5CCc6cccc(C(=O)Nc7nc8ccccc8s7)c6C5)nc4C(=O)O)c3C)cc2)C(C)(C)C)cc1 (single isomer, unassigned) [Compound 129b] | A (Ymin < 50%) | 
3 | Cc1ncsc1-c1ccc([C@H](C)NC(=O)[C@@H]2C[C@@H](O)CN2C(=O)[C@@H](NC(=O)CCCCCCOc2cccc(-c3ccc(N4CCc5cccc(C(=O)Nc6nc7ccccc7s6)c5C4)nc3C(=O)O)c2C)C(C)(C)C)cc1 [Compound 106a, 6-(8-(benzo[d]thiazol-2-ylcarbamoyl)-3,4-dihydroisoquinolin-2(1H)-yl)-3-(3-((7-(((S)-1-((2S,4R)-4-hydroxy-2-(((S)-1-(4-(4-methylthiazol-5-yl)phenyl)ethyl)carbamoyl)pyrrolidin-1-yl)-3,3-dimethyl-1-oxobutan-2-yl)amino)-7-oxoheptyl)oxy)-2-methylphenyl)picolinic acid] | A (Ymin < 50%) | A (Ymin < 50%)
4 | Cc1ncsc1-c1ccc([C@H](C)NC(=O)[C@@H]2C[C@@H](O)CN2C(=O)[C@@H](NC(=O)C(F)(F)[C@H]2CC[C@@H](Oc3cccc(-c4ccc(N5CCc6cccc(C(=O)Nc7nc8ccccc8s7)c6C5)nc4C(=O)O)c3C)CC2)C(C)(C)C)cc1 [Compound 144b] | C (Ymin ≥ 70%) | 
5 | Cc1ncsc1-c1ccc([C@H](C)NC(=O)[C@@H]2C[C@@H](O)CN2C(=O)[C@@H](NC(=O)CCCCCCCCCn2nc(C)c(-c3ccc(N4CCc5cccc(C(=O)Nc6nc7ccccc7s6)c5C4)nc3C(=O)O)c2C)C(C)(C)C)cc1 [Compound 111a, 6-[8-(1,3-benzothiazol-2-ylcarbamoyl)-3,4-dihydro-1H-isoquinolin-2-yl]-3-[1-[10-[[(1S)-1-[(2S,4R)-4-hydroxy-2-[[(1S)-1-[4-(4-methylthiazol-5-yl)phenyl]ethyl]carbamoyl]pyrrolidine-1-carbonyl]-2,2-dimethyl-propyl]amino]-10-oxo-decyl]-3,5-dimethyl-pyrazol-4-yl]pyridine-2-carboxylic acid] |  | B (50% ≤ Ymin < 70%)
6 | Cc1ncsc1-c1ccc([C@H](C)NC(=O)[C@@H]2C[C@@H](O)CN2C(=O)[C@@H](NC(=O)C(C)(C)[C@H]2CC[C@H](Oc3cccc(-c4ccc(N5CCc6cccc(C(=O)Nc7nc8ccccc8s7)c6C5)nc4C(=O)O)c3C)CC2)C(C)(C)C)cc1 (single isomer, unassigned) [Compound 138b] | C (Ymin ≥ 70%) | 
7 | Cc1ncsc1-c1ccc([C@H](C)NC(=O)[C@@H]2C[C@@H](O)CN2C(=O)[C@@H](NC(=O)CCc2ccc(COc3cccc(-c4ccc(N5CCc6cccc(C(=O)Nc7nc8ccccc8s7)c6C5)nc4C(=O)O)c3C)cc2)C(C)(C)C)cc1 [Compound 114a, 6-(8-(benzo[d]thiazol-2-ylcarbamoyl)-3,4-dihydroisoquinolin-2(1H)-yl)-3-(3-((4-(3-(((S)-1-((2S,4R)-4-hydroxy-2-(((S)-1-(4-(4-methylthiazol-5-yl)phenyl)ethyl)carbamoyl)pyrrolidin-1-yl)-3,3-dimethyl-1-oxobutan-2-yl)amino)-3-oxopropyl)benzyl)oxy)-2-methylphenyl)picolinic acid] | A (Ymin < 50%) | B (50% ≤ Ymin < 70%)
8 | Cc1ncsc1-c1ccc([C@H](C)NC(=O)[C@@H]2C[C@@H](O)CN2C(=O)[C@@H](NC(=O)C[C@H]2CC[C@H](Oc3cccc(-c4ccc(N5CCc6cccc(C(=O)Nc7nc8ccccc8s7)c6C5)nc4C(=O)O)c3C)CC2)C(C)(C)C)cc1 [Compound 116a, 6-(8-(benzo[d]thiazol-2-ylcarbamoyl)-3,4-dihydroisoquinolin-2 (1H)-yl)-3-(3-(((1S,4r)-4-(2-(((S)-1-((2S,4R)-4-hydroxy-2-(((S)-1-(4-(4-methylthiazol-5-yl)phenyl)ethyl)carbamoyl)pyrrolidin-1-yl)-3,3-dimethyl-1-oxobutan-2-yl)amino)-2-oxoethyl)cyclohexyl)oxy)-2-methylphenyl)picolinic acid] | A (Ymin < 50%) | 
9 | Cc1ncsc1-c1ccc([C@H](C)NC(=O)[C@@H]2C[C@@H](O)CN2C(=O)[C@@H](NC(=O)CC[C@@H](c2ccc(Oc3cccc(-c4ccc(N5CCc6cccc(C(=O)Nc7nc8ccccc8s7)c6C5)nc4C(=O)O)c3C)cc2)C(F)(F)F)C(C)(C)C)cc1 (relative stereo) [Compound 135a, 6-(8-(benzo[d]thiazol-2-ylcarbamoyl)-3,4-dihydroisoquinolin-2 (1H)-yl)-3-(2-methyl-3-(4-((S)-1,1,1-trifluoro-5-(((S)-1-((2S,4R)-4-hydroxy-2-(((S)-1-(4-(4-methylthiazol-5-yl)phenyl)ethyl)carbamoyl)pyrrolidin-1-yl)-3,3-dimethyl-1-oxobutan-2-yl)amino)-5-oxopentan-2-yl)phenoxy)phenyl)picolinic acid] | A (Ymin < 50%) | 
10 | Cc1ncsc1-c1ccc([C@H](C)NC(=O)[C@@H]2C[C@@H](O)CN2C(=O)[C@@H](NC(=O)CCc2ccc(Oc3cccc(-c4ccc(N5CCc6cccc(C(=O)Nc7nc8ccccc8s7)c6C5)nc4C(=O)O)c3C)cc2)C(C)(C)C)cc1 [Compound 112a, 6-[8-(1,3-benzothiazol-2-ylcarbamoyl)-3,4-dihydro-1H-isoquinolin-2-yl]-3-[3-[4-[3-[[(1S)-1-[(2S, 4R)-4-hydroxy-2-[[(1S)-1-[4-(4-methylthiazol-5-yl)phenyl]ethyl]carbamoyl]pyrrolidine-1-carbonyl]-2,2-dimethyl-propyl]amino]-3-oxo-propyl]phenoxy]-2-methyl-phenyl]pyridine-2-carboxylic acid] | B (50% ≤ Ymin < 70%) | B (50% ≤ Ymin < 70%)
11 | CC(=O)O[C@@H]1C[C@@H](C(=O)N[C@@H](C)c2ccc(-c3scnc3C)cc2)N(C(=O)[C@@H](NC(=O)C[C@H]2CC[C@H](Oc3cccc(-c4ccc(N5CCc6cccc(C(=O)Nc7nc8ccccc8s7)c6C5)nc4C(=O)O)c3C)CC2)C(C)(C)C)C1 [Compound 119a, 3-(3-(((1S,4r)-4-(2-(((S)-1-((2S,4R)-4-acetoxy-2-(((S)-1-(4-(4-methylthiazol-5-yl)phenyl)ethyl)carbamoyl)pyrrolidin-1-yl)-3,3-dimethyl-1-oxobutan-2-yl)amino)-2-oxoethyl)cyclohexyl)oxy)-2-methylphenyl)-6-(8-(benzo[d]thiazol-2-ylcarbamoyl)-3,4-dihydroisoquinolin-2 (1H)-yl)picolinic acid] | B (50% ≤ Ymin < 70%) | 
12 | Cc1ncsc1-c1ccc([C@H](C)NC(=O)[C@@H]2C[C@@H](O)CN2C(=O)[C@@H](NC(=O)C(F)(F)[C@H]2CC[C@H](Oc3cccc(-c4ccc(N5CCc6cccc(C(=O)Nc7nc8ccccc8s7)c6C5)nc4C(=O)O)c3C)CC2)C(C)(C)C)cc1 [Compound 144a] | A (Ymin < 50%) | 
13 | Cc1ncsc1-c1ccc([C@H](C)NC(=O)[C@@H]2C[C@@H](O)CN2C(=O)[C@@H](NC(=O)CC[C@H](c2ccc(Oc3cccc(-c4ccc(N5CCc6cccc(C(=O)Nc7nc8ccccc8s7)c6C5)nc4C(=O)O)c3C)cc2)C(F)(F)F)C(C)(C)C)cc1 (relative stereo) [Compound 135b, 6-(8-(benzo[d]thiazol-2-ylcarbamoyl)-3,4-dihydroisoquinolin-2 (1H)-yl)-3-(2-methyl-3-(4-((R)-1,1,1-trifluoro-5-(((S)-1-((2S,4R)-4-hydroxy-2-(((S)-1-(4-(4-methylthiazol-5-yl)phenyl)ethyl)carbamoyl)pyrrolidin-1-yl)-3,3-dimethyl-1-oxobutan-2-yl)amino)-5-oxopentan-2-yl)phenoxy)phenyl)picolinic acid] | A (Ymin < 50%) | 
14 | Cc1ncsc1-c1ccc(CNC(=O)[C@@H]2C[C@@H](O)CN2C(=O)[C@@H](NC(=O)C2(F)CC2)C(C)(C)SCCCCCCCCCCCCOc2cccc(-c3ccc(N4CCc5cccc(C(=O)Nc6nc7ccccc7s6)c5C4)nc3C(=O)O)c2C)cc1 [Compound 142a] | B (50% ≤ Ymin < 70%) | 
15 | Cc1ncsc1-c1ccc([C@H](C)NC(=O)[C@@H]2C[C@@H](O)CN2C(=O)[C@@H](NC(=O)C(F)(F)CCc2ccc(Oc3cccc(-c4ccc(N5CCc6cccc(C(=O)Nc7nc8ccccc8s7)c6C5)nc4C(=O)O)c3C)cc2)C(C)(C)C)cc1 [Compound 139a] | A (Ymin < 50%) | 
